By EC50 is commonly meant the concentration needed to bring the measured effect to its halfway point.

The record followed here is patent US10034886B2, “GLP-1 receptor modulators” (Celgene International II SÀRL, priority 2014, dated 2018).

The target in the experiment is T1, GLP-1R (Homo sapiens, UniProt P43220).
T1 construct: host or cells: GLP-1R CRE-bla CHO-K1 cells
T1 sequence (P43220 24-463): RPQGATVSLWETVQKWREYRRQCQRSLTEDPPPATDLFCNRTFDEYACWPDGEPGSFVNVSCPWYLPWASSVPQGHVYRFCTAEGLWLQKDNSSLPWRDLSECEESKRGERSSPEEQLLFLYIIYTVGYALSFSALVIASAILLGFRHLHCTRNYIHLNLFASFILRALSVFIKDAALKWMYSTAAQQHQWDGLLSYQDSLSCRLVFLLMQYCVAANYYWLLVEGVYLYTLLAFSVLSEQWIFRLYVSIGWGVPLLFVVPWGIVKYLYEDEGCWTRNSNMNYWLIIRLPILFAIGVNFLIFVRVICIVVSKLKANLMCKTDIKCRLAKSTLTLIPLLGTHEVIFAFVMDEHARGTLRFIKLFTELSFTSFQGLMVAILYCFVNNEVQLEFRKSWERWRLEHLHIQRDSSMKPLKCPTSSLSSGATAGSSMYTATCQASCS
T1 sequence (P01275 100-127 partner limits assumed): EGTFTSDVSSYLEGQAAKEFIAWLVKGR
The experiment can be described thus: EC20 GLP-1(9-36) PAM cAMP assay: dose response of compound in the presence of fixed concentration of GLP-1(9-36). Conditions: dose response of compound in presence of fixed concentration of GLP-1(9-36), GLP-1R CRE-bla CHO-K1 cells, read-out: EC20 GLP-1(9-36) PAM EC50. The experiment is classed as cell-based. Put shortly:
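Positive allosteric modulation read as cAMP accumulation: compound titrations (12 points) combined with an EC20 level of GLP-1(9-36) on CHO-K1 GLP-1R CRE-bla cells, IBMX present, 30 min, 37 °C, pH 7.4 buffer. Luminescence converted to cAMP via standards; non-linear fit gave EC50 and Emax.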
(cAMP levels reflect the balance of adenylyl cyclase and phosphodiesterase activity.)
Turning to `Cc1ccc(-c2ccc(-c3cnc(-c4ccc(C[C@H](NC(=O)c5ccc(C(C)(C)C)s5)C(=O)N[C@H](C)C(=O)O)cc4)nc3)cc2)c(F)c1` [Compound 1148], the EC50 was below 800 nM.
`C[C@@H](NC(=O)[C@H](Cc1ccc(-c2ncc(-c3ccc(-c4ccc(F)cc4F)cc3)cn2)cc1)NC(=O)c1ccc(C(C)(C)C)s1)C(=O)O` [Compound 1149]: the EC50 is 5000 to 10000 nM.
As to `C[C@@H](NC(=O)[C@H](Cc1ccc(-c2ncc(-c3ccc(C4=CCC(C)(C)CC4)cc3)cn2)cc1)NC(=O)c1ccc(C(C)(C)C)s1)C(=O)O` [Compound 1150], the EC50 was below 800 nM.
Consider `C[C@@H](NC(=O)[C@H](Cc1ccc(-c2ncc(-c3ccc(C4=CCC(F)(F)CC4)cc3)cn2)cc1)NC(=O)c1ccc(C(C)(C)C)s1)C(=O)O` [Compound 1151], for which the EC50 is below 800 nM.
Consider `CC[C@H]1CC[C@H](c2ccc(-c3cnc(-c4ccc(C[C@H](NC(=O)c5ccc(CC(C)C)s5)C(=O)N5CC(C(=O)O)C5)cc4)nc3)cc2)CC1` [Compound 1152], for which the EC50 was below 800 nM.
Turning to `CCc1ccc(C(=O)N[C@@H](Cc2ccc(-c3ncc(-c4ccc([C@H]5CC[C@H](CC)CC5)cc4)cn3)cc2)C(=O)N2CC(C(=O)O)C2)s1` [Compound 1153], the EC50 was below 800 nM.
For `CC[C@H]1CC[C@H](c2ccc(-c3cnc(-c4ccc(C[C@H](NC(=O)c5ccc(C6CC6)s5)C(=O)N5CC(C(=O)O)C5)cc4)nc3)cc2)CC1` [Compound 1154], the EC50 was below 800 nM.
Turning to `CC[C@H]1CC[C@H](c2ccc(-c3cnc(-c4ccc(C[C@H](NC(=O)c5ccc(CC(C)C)cc5)C(=O)N5CC(C(=O)O)C5)cc4)nc3)cc2)CC1` [Compound 1155], the EC50 is below 800 nM.
On to `CCCc1ccc(C(=O)N[C@@H](Cc2ccc(-c3ncc(-c4ccc([C@H]5CC[C@H](CC)CC5)cc4)cn3)cc2)C(=O)N2CC(C(=O)O)C2)cc1` [Compound 1156], for which the EC50 is below 800 nM.
With `CCC(C)(C)c1ccc(C(=O)N[C@@H](Cc2ccc(-c3ncc(-c4ccc([C@H]5CC[C@H](CC)CC5)cc4)cn3)cc2)C(=O)N2CC(C(=O)O)C2)cc1` [Compound 1157] the figure was below 800 nM; with `CC[C@H]1CC[C@H](c2ccc(-c3cnc(-c4ccc(C[C@H](NC(=O)c5ccc(C6CC6)cc5)C(=O)N5CC(C(=O)O)C5)cc4)nc3)cc2)CC1` [Compound 1158], below 800 nM.
To `CC[C@H]1CC[C@H](c2ccc(-c3cnc(-c4ccc(C[C@H](NC(=O)c5ccc(C6(C)CC6)cc5)C(=O)N5CC(C(=O)O)C5)cc4)nc3)cc2)CC1` [Compound 1159] belongs below 800 nM; to `CC[C@H]1CC[C@H](c2ccc(-c3cnc(-c4ccc(C[C@H](NC(=O)c5ccc(OC(C)C)cc5)C(=O)N5CC(C(=O)O)C5)cc4)nc3)cc2)CC1` [Compound 1160], below 800 nM.
For the molecule `CCCCOc1ccc(CC(=O)N[C@@H](Cc2ccc(-c3ncc(-c4ccc([C@H]5CC[C@H](CC)CC5)cc4)cn3)cc2)C(=O)N2CC(C(=O)O)C2)cc1` [Compound 1161], the EC50 was 800 to 2500 nM.
With `CC[C@H]1CC[C@H](c2ccc(-c3cnc(-c4ccc(C[C@H](NC(=O)c5ccc(C(C)=O)cc5)C(=O)N5CC(C(=O)O)C5)cc4)nc3)cc2)CC1` [Compound 1162] the figure was 2500 to 5000 nM.
On to `CC[C@H]1CC[C@H](c2ccc(-c3cnc(-c4ccc(C[C@H](NC(=O)c5ccc(C(C)(C)C)nc5)C(=O)N5CC(C(=O)O)C5)cc4)nc3)cc2)CC1` [Compound 1163], for which the EC50 is below 800 nM.
For `CC[C@H]1CC[C@H](c2ccc(-c3cnc(-c4ccc(C[C@H](NC(=O)c5cnc(C(C)(C)C)nc5)C(=O)N5CC(C(=O)O)C5)cc4)nc3)cc2)CC1` [Compound 1164], the EC50 was below 800 nM.
`CC[C@H]1CC[C@H](c2ccc(-c3cnc(-c4ccc(C[C@H](NC(=O)c5cnn(C(C)(C)C)c5)C(=O)N5CC(C(=O)O)C5)cc4)nc3)cc2)CC1` [Compound 1165]: the EC50 is below 800 nM.
As for `CC[C@H]1CC[C@H](c2ccc(-c3cnc(-c4ccc(C[C@H](NC(=O)c5cc6cc(OC)ccc6[nH]5)C(=O)N5CC(C(=O)O)C5)cc4)nc3)cc2)CC1` [Compound 1166], the EC50 was below 800 nM.
Regarding `CC[C@H]1CC[C@H](c2ccc(-c3cnc(-c4ccc(C[C@H](NC(=O)c5ccc(C(C)C)s5)C(=O)N5CC(C(=O)O)C5)cc4)nc3)cc2)CC1` [Compound 1167], the EC50 is below 800 nM.
Regarding `CCc1ccc(C(=O)N[C@@H](Cc2ccc(-c3ncc(-c4ccc([C@H]5CC[C@H](CC)CC5)cc4)cn3)cc2)C(=O)N2CC(C(=O)O)C2)cc1` [Compound 1168], the EC50 is below 800 nM.
With `CC[C@H]1CC[C@H](c2ccc(-c3cnc(-c4ccc(C[C@H](NC(=O)c5ccc(C(C)C)cc5)C(=O)N5CC(C(=O)O)C5)cc4)nc3)cc2)CC1` [Compound 1169] the figure was below 800 nM; with `CC[C@H]1CC[C@H](c2ccc(-c3cnc(-c4ccc(C[C@H](NC(=O)c5ccc(C(C)(C)C)cc5)C(=O)N5CC(C(=O)O)C5)cc4)nc3)cc2)CC1` [Compound 1170], below 800 nM.
With `C[C@@H](NC(=O)[C@H](Cc1ccc(-c2ncc(-c3ccc(-c4ccc(OC(F)(F)F)cc4)cc3F)cn2)cc1)NC(=O)c1ccc(C(C)(C)C)s1)C(=O)O` [Compound 1171], the EC50 was below 800 nM.
Consider `Cc1ccc(-c2ccc(-c3cnc(-c4ccc(C[C@H](NC(=O)c5ccc(C(C)(C)C)s5)C(=O)N[C@H](C)C(=O)O)cc4)nc3)c(F)c2)cc1` [Compound 1172], for which the EC50 fell in the range of 800 to 2500 nM.
For the molecule `CCc1ccc(-c2ccc(-c3cnc(-c4ccc(C[C@H](NC(=O)c5ccc(C(C)(C)C)s5)C(=O)N[C@H](C)C(=O)O)cc4)nc3)c(F)c2)cc1` [Compound 1173], the EC50 is below 800 nM.
With `C[C@@H](NC(=O)[C@H](Cc1ccc(-c2ncc(-c3ccc(-c4ccc(C(F)(F)F)cc4)cc3F)cn2)cc1)NC(=O)c1ccc(C(C)(C)C)s1)C(=O)O` [Compound 1174], the EC50 is below 800 nM.
To `Cc1cc(-c2ccc(-c3cnc(-c4ccc(C[C@H](NC(=O)c5ccc(C(C)(C)C)s5)C(=O)N[C@H](C)C(=O)O)cc4)nc3)c(F)c2)ccc1OC(F)(F)F` [Compound 1175] belongs below 800 nM; to `CC(C)(C)c1ccc(C(=O)N[C@@H](Cc2ccc(-c3ncc(-c4ccc([C@H]5CC[C@H](C)CC5)cc4)cn3)cc2)C(=O)N2CC(C(=O)O)C2)s1` [Compound 1176], below 800 nM.
Regarding `CC(C)(C)c1ccc(C(=O)N[C@@H](Cc2ccc(-c3ncc(-c4ccc([C@H]5CC[C@@H](C)CC5)cc4)cn3)cc2)C(=O)N2CC(C(=O)O)C2)s1` [Compound 1177], the EC50 was below 800 nM.
`CC(C)[C@H]1CC[C@H](c2ccc(-c3cnc(-c4ccc(C[C@H](NC(=O)c5ccc(C(C)(C)C)s5)C(=O)N5CC(C(=O)O)C5)cc4)nc3)cc2)CC1` [Compound 1178]: the EC50 is below 800 nM.
With `CC(C)[C@H]1CC[C@@H](c2ccc(-c3cnc(-c4ccc(C[C@H](NC(=O)c5ccc(C(C)(C)C)s5)C(=O)N5CC(C(=O)O)C5)cc4)nc3)cc2)CC1` [Compound 1179] the figure was below 800 nM; with `CC(C)(C)c1ccc(C(=O)N[C@@H](Cc2ccc(-c3ncc(-c4ccc(C5CCOCC5)cc4)cn3)cc2)C(=O)N2CC(C(=O)O)C2)s1` [Compound 1180], 2500 to 5000 nM; with `CC(C)(C)c1ccc(C(=O)N[C@@H](Cc2ccc(-c3ncc(-c4ccc([C@H]5CC[C@H](C(C)(C)C)CC5)cc4)cn3)cc2)C(=O)N2CC(C(=O)O)C2)s1` [Compound 1181], 800 to 2500 nM.
With `CC(C)(C)c1ccc(C(=O)N[C@@H](Cc2ccc(-c3ncc(-c4ccc([C@H]5CC[C@@H](C(C)(C)C)CC5)cc4)cn3)cc2)C(=O)N2CC(C(=O)O)C2)s1` [Compound 1182] the figure was below 800 nM; with `CC(C)(C)c1ccc(C(=O)N[C@@H](Cc2ccc(-c3ncc(-c4ccc(C5CCC(F)(F)CC5)cc4)cn3)cc2)C(=O)N2CC(C(=O)O)C2)s1` [Compound 1183], below 800 nM.
With `CC(C)(C)c1ccc(C(=O)N[C@@H](Cc2ccc(-c3ncc(-c4ccc([C@H]5CC[C@H](C(F)(F)F)CC5)cc4)cn3)cc2)C(=O)N2CC(C(=O)O)C2)s1` [Compound 1184] the figure was below 800 nM.
For `CC(C)(C)c1ccc(C(=O)N[C@@H](Cc2ccc(-c3ncc(-c4ccc([C@H]5CC[C@@H](C(F)(F)F)CC5)cc4)cn3)cc2)C(=O)N2CC(C(=O)O)C2)s1` [Compound 1185], the EC50 was below 800 nM.
With `CC(C)(C)c1ccc(C(=O)N[C@@H](Cc2ccc(-c3ncc(-c4ccc(C5CCC6(CC5)OCCO6)cc4)cn3)cc2)C(=O)N2CC(C(=O)O)C2)s1` [Compound 1186] the figure was below 800 nM; with `CC1CCC(c2ccc(-c3cnc(-c4ccc(C[C@H](NC(=O)c5ccc(C(C)(C)C)s5)C(=O)N5CC(C(=O)O)C5)cc4)nc3)cc2)CC1` (stereo partly shown) [Compound 1187], below 800 nM.
In the case of `CC(C)(C)c1ccc(C(=O)N[C@@H](Cc2ccc(-c3ncc(-c4ccc(-c5ccc(OC(F)(F)F)cc5)cc4F)cn3)cc2)C(=O)N2CC(C(=O)O)C2)s1` [Compound 1188], the half-maximal effective concentration (EC50) is below 800 nM.
Regarding `CCc1ccc(-c2ccc(-c3cnc(-c4ccc(C[C@H](NC(=O)c5ccc(C(C)(C)C)s5)C(=O)N5CC(C(=O)O)C5)cc4)nc3)c(F)c2)cc1` [Compound 1189], the EC50 was below 800 nM.
As to `CC(C)(C)c1ccc(C(=O)N[C@@H](Cc2ccc(-c3ncc(-c4ccc(-c5ccc(Cl)cc5)cc4F)cn3)cc2)C(=O)N2CC(C(=O)O)C2)s1` [Compound 1190], the EC50 is below 800 nM.
In the case of `Cc1cc(C)cc(-c2ccc(-c3cnc(-c4ccc(C[C@H](NC(=O)c5ccc(C(C)(C)C)s5)C(=O)N5CC(C(=O)O)C5)cc4)nc3)c(F)c2)c1` [Compound 1191], the EC50 was below 800 nM.
`CC(C)(C)c1ccc(C(=O)N[C@@H](Cc2ccc(-c3ncc(-c4ccc(-c5cccc(Cl)c5)cc4F)cn3)cc2)C(=O)N2CC(C(=O)O)C2)s1` [Compound 1192]: the concentration giving a half-maximal response (EC50) is below 800 nM.
As for `CC(=O)c1cccc(-c2ccc(-c3cnc(-c4ccc(C[C@H](NC(=O)c5ccc(C(C)(C)C)s5)C(=O)N5CC(C(=O)O)C5)cc4)nc3)c(F)c2)c1` [Compound 1193], the EC50 is below 800 nM.
